{
  "source": "patent US4552888A",
  "about": "“Ascorbic acid ethers in angiogene” (Eli Lilly and Company, priority 1983, dated 1985)",
  "key": {"[1]": {"tested_on": "Madison (M109) lung carcinoma", "experiment": "Madison lung metastasis assay", "assay_type": "in vivo, male BALB/C mice", "protocol": "In addition, the compounds of this invention have found utility as angiogenesis inhibitors in metastatis formation. Such activity has been found in an artificial metastasis model using Madison lung (M 109) carcinoma which metastasizes preferentially to lungs and is not overly sensitive to chemotherapeutic agents. The test is carried out as follows.\nThe Madison (M109) lung carcinoma is carried as a transplantable line in syngeneic BALB/C mice. This tumor line was obtained from the tumor bank at Mason Research Institute, Worcester, Mass. For tumor metastasis studies, a subcutaneously-grown tumor is aseptically excised, minced into small pieces with a scissors, and gently trypsinized at room temperature to obtain a single cell suspension. The cells are suspended in RPMI-1640 medium (M. A. Bioproducts, Walkersville, MD). Viable M109 cells are determined by trypan blue exclusion, and the cell concentration is determined with a hemocytometer. The cells are adjusted to 1×10^5 viable cells/ml. of medium. M109 cells are injected i.v. into normal, male BALB/C mice. Inoculum volume per mouse is 0.2 ml. (2×10^4 cells). Drugs are administered i.p. to randomized groups of 10 mice 2 days prior to tumor cell inoculation. Controls receive mock injections of 0.5 ml. buffer. Daily mortality is monitored, and median survival times are determined for each group. Cytoxan was employed as a positive control. In the Table, column 1 gives drug treatment and columns 2 and 3 measures number of lesions±standard error per lung on days 30 and 42.\nThe growth rate and number of lung metastases in the above experiment were less than usual. A new transplant line was employed in a second determination with lung lesions developing earlier. Table 6 records the results of this experiment; here ascorbic acid was employed as the control drug."}, "[2]": {"tested_on": "paw swelling caused by Type II collagen", "experiment": "Collagen arthritis assay (type II collagen-induced paw swelling)", "assay_type": "in vivo, inbred Lewis male rats", "protocol": "This test method is a collagen arthritis assay carried out as follows. Type II collagen is isolated from bovine articular cartilage by the method of […] and Nimni [Biochemistry, 10, 3905, (1971)]. The collagen is dissolved in 0.1M acetic acid and stored at -20°. Type II collagen solution is diluted to 2 mg./ml. concentration and emulsified thoroughly with an equal volume of incomplete Freund's adjuvant (ICFA). The emulsion containing approximately 0.5 mg. of collagen is injected intradermally to groups of 6 inbred Lewis male rats (Charles River Breeders; 170-200 g.) at various sites in the dorsal area. The hindpaw volumes of each rat is measured and recorded three times a week throughout the test period to assess the inflammatory reaction. The animals receive compounds under test as suspensions in carboxymethylcellulose vehicle, by oral gavage, 5 days per week (Mon.-Fri.). At the end of the test (day 28 or 30), the blood of these animals is drawn by cardiac puncture and the serum anti-type II collagen antibody levels are estimated by passive hemagglutination technique, using glutaraldehyde treated sheep red cells, to which type II collagen is conjugated [[…] et al., Immunochemistry, 6, 67,1969); Andriopoulos et al., Arth. Rheum., 19, 613, (1976)]. The cellular response or delayed-type hypersensitivity response to type II collagen is measured by the radiometric ear index assay (Kostiala, Immunology, 33, 561, 1977). In certain experiments, the bone damage occurring because of immunization with type II collagen and the effects of drugs are determined from the radiographs of the hindpaws of two or three representative animals from each group. Injections of ICFAs alone were employed to some rats as a negative control."}, "[3]": {"tested_on": "Morris hepatoma (5123D)", "experiment": "Growth/induction of transplanted Morris hepatoma (5123D) in ICFA-treated rats", "assay_type": "in vivo", "settings": "10-100 mg. once or twice a day orally", "protocol": "Another laboratory test involving angiogenesis or neovascularization is based on the time period required for a differentiated tumor to become undifferentiated (vascularized). An inflammatory response enhances tumor growth and reduces the lag phase. In this test, rats are injected with a test drug (30 minutes prior to dosing) with ICFA (incomplete Freund's adjuvant) plus India ink intradermally in a shaved area on a rat's back, thus providing a marked injection site. After 3 days of twice daily administration of the test drug followed 30 minutes later by administration of ICFA, the tumor is transplanted on the periphery of the marked injection site. The animals are weighed and the tumor size determined (length+width/2) at weekly intervals for 4 weeks. Morris hepatoma (5123D) was used as the […] tumor.\n0.5 cc. of ICFA were also given once or twice daily subcutaneously to each test rat."}, "[4]": {"tested_on": "scorbutic guinea pigs", "settings": "added to the diet of scorbutic guinea pigs; Gould et al. 1949; cited from earlier work"}, "[5]": {"tested_on": "proline hydroxylation in scorbutic granulomas", "settings": "in vitro; Rokosova and Chvapil 1974; cited from earlier work"}, "[6]": {"tested_on": "Vitamin C activity", "settings": "orally in aqueous solution; Bezssonoff and Sacrez 1937; cited from earlier work"}, "[7]": {"tested_on": "lung metastases and B16 melanoma", "settings": "mice; Folkman and Taylor; cited from earlier work"}},
  "data": [
    {"molecule": "CCCCCCCCCCCCCCCCCCOC1=C(O)C(=O)O[C@@H]1[C@@H](O)CO", "note": "[3-O-n-octadecyl-L-ascorbic acid]", "values": [
      {"measurement": "Mean No. of Lesions ± S.E./Lung", "setting": "[1]; Table 5, Day 30, 35 mg./kg. i.p., Emulphor control 15.8 ± 4.6", "result": "1.8 ± 1.2", "unit": "Lesions/Lung"},
      {"measurement": "Mean No. of Lesions ± S.E./Lung", "setting": "[1]; Table 5, Day 42, 35 mg./kg. i.p., Emulphor control 20.6 ± 1.8", "result": "18.6 ± 1.3", "unit": "Lesions/Lung"},
      {"measurement": "Mean No. of Lesions ± S.E./Lung", "setting": "[1]; Table 6, 16 day, new transplant line, 30 mg./kg., Emulphor control 69.8 ± 10.4", "result": "10.7 ± 3.4", "unit": "Lesions/Lung"},
      {"measurement": "Mean No. of Lesions ± S.E./Lung", "setting": "[1]; Table 6, 16 day, new transplant line, 100 mg./kg., Emulphor control 69.8 ± 10.4", "result": "13.0 ± 5.1", "unit": "Lesions/Lung"},
      {"measurement": "decrease of paw volumes", "setting": "[2]; 12.5 mg./kg.", "result": "about 25%"},
      {"measurement": "paw volumes vs controls", "setting": "[2]; 17.5 mg./kg.", "result": "indistinguishable from controls"},
      {"measurement": "decrease of paw volume vs positive controls (collagen, no drug)", "setting": "[2]; 50 mg./kg., other runs", "result": "90-100%"},
      {"measurement": "paw volumes vs ICFA-treated rats (negative controls)", "setting": "[2]; oral 50 mg./kg., one experiment", "result": "not substantially different from those of the ICFA-treated rats"},
      {"measurement": "growth of the undifferentiated tumor", "setting": "[3]; alternative outcome to delayed induction", "result": "inhibited the growth of the undifferentiated tumor"},
      {"measurement": "delay of tumor induction", "setting": "[3]; alternative outcome to growth inhibition", "result": "4 to 7", "unit": "days"}
    ]},
    {"molecule": "COC1=C(O)C(=O)O[C@@H]1[C@@H](O)CO", "note": "[3-methylascorbic acid]", "values": [
      {"measurement": "vitamin C activity relative to ascorbic acid", "setting": "[4]", "result": "about 1/50"},
      {"measurement": "stimulation of proline hydroxylation", "setting": "[5]", "result": "had an effect in vitro"},
      {"measurement": "Vitamin C activity", "setting": "[6]", "result": "active"}
    ]},
    {"molecule": "protamine", "values": [
      {"measurement": "inhibition of lung metastases and B16 melanoma", "setting": "[7]", "result": "inhibited lung metastases and B16 melanoma in mice"}
    ]}
  ]
}
